Test results taken from PMC8342458, “GluN2A and GluN2B NMDA receptors use distinct allosteric routes” (Nature Communications, 2021).
Values joined by “and” are separate entries in the source; they are usually repeats but may differ in a detail not shown here. Identical values can stand only once. Like-named read-outs stand apart in the source and are kept apart here.

Assays:
[1] = molecular target: T1, GluN1-K178AzF/GluN2B receptors (UniProt P35439+Q01097, K178F); test: TEVC recordings in Xenopus oocytes, modulator sensitivity before and after UV photocrosslinking; assay type: cell-based, rat (GluN1), mouse (GluN2B); details: for Isper/Io 20 μM: 20 μM spermine; for Isper/Io 20 μM / Isper/Io 200 μM / Isper/Io 1000 μM / spermine maximal potentiation / spermine nH / EC50: pH 6.5, -30 mV; for Isper/Io 200 μM: 200 μM spermine; for Isper/Io 1000 μM: 1000 μM spermine; for EC50: read-out: spermine EC50
T1 construct: For full-length multimeric membrane-embedded receptors studied in cellulo, as done in the present work; expressed in transfected cells; host or cells: Xenopus laevis oocytes, co-injected with amber suppressor tRNA (Yam) and AzF-RS
Procedure: (§1) The pcDNA3-based expression plasmids for rat GluN1-1a (named GluN1 herein), rat GluN2A, and mouse GluN2B (also known as ε2) subunits, Pfu-based site-directed mutagenesis strategy, and sequencing procedure have been described previously[68],[69]. Incorporation of the unnatural amino acids (UAAs) AzF and BzF into NMDARs was performed using the genetic code expansion methodology as previously described[52],[53],[83]. The plasmid pSVB.Yam carrying the gene encoding the amber suppressor tRNA derived from B. stearothermophilus Tyr-tRNACUA, while the aminoacyl-tRNA synthetases (aaRS) construction for AzF and BzF derived from E. coli TyrRS[84],[85].
(§2) Recombinant NMDARs were expressed in Xenopus laevis oocytes after nuclear injection of 36 nl of a mixture of cDNAs (at 10–30 ng/μl) encoding various GluN1 and GluN2 subunits (ratio 1:1). Oocytes were prepared, injected, incubated, and voltage-clamped as described previously. For UAA incorporation, oocytes were co-injected with 36 nl of a cDNA mixture encoding for of GluN1, GluN2, Yam, and aaRS as follows, unless otherwise indicated in the text: GluN1-K178amber (120 ng/μl), GluN2A (80 ng/µl) or GluN2B (120 ng/μl), Yam (10 ng/μl), AzF-RS (5 ng/μl). After injection, oocytes were incubated at 19 °C in a Barth solution containing (in mM) 88 NaCl, 1 KCl, 0.33 Ca(NO3)2, 0.41 CaCl2, 0.82 MgSO4, 2.4 NaHCO3, 10 HEPES (pH adjusted to 7.6 with NaOH) supplemented with gentamicin ([…]) and the NMDAR glutamate binding site competitive antagonist D-APV (50 μM). AzF and BzF were added to the incubation medium at final concentrations of 1 mM and 2 mM, respectively.
(§3) For all experiments, except those on pH and spermine sensitivity, the standard external solution contained (in mM): 100 NaCl, 0.3 BaCl2, and 5 HEPES (pH adjusted to 7.3 with KOH). […] For the pH and spermine sensitivity experiments, an external solution enriched in HEPES was used to insure proper pH buffering. Unless otherwise mentioned, NMDAR-mediated currents were induced by simultaneously applications of saturating concentrations of glutamate and glycine (100 μM each). Glutamate and glycine dose-response curves (DRC) were performed in the presence of 100 µM glycine and 100 µM glutamate, respectively. Recordings were performed at a holding potential of −60 mV and at room temperature. Data were collected and analyzed using Clampex 10.5 and Clampfit 10.5 (Molecular Devices), respectively, and fitted using KaleidaGraph 4.0 (Synergy software).
(§4) EC50 and nH were fitted as free parameters. […] For proton DRC, corrections for small shifts in the reference potential of bath electrodes and analysis of the data were performed as previously described. Spermine experiments were performed and analyzed as previously described. In brief, spermine sensitivity was assessed at pH 6.5 and at a holding potential of −30 mV to maximize the spermine induced potentiation. […] EC50, a and nH were set as free parameters. MK-801 is an NMDAR open channel blocker with slow reversibility and, consequently, the rate at which MK-801 inhibits NMDAR responses depends on the level of channel activity, that is, channel open probability (Po). Based on this principle, MK-801 is classically used to estimate the level of NMDAR channel activity in macroscopic whole-cell recordings[36],[47],[56],[86],[87]. Note, however, that MK- 801 inhibition kinetics can index relative, not absolute, Po. MK-801 solutions (10 nM for GluN2A-containing receptors and 50 nM for GluN2B-containing receptors) were prepared by dilution of a stock solution (50 mM) into the agonist containing solutions. MK-801 time constants of inhibition (τon) were obtained by fitting currents with a single-exponential component to a time window corresponding to 10–90% of maximum inhibition. On-rate (kon) constants were then calculated assuming a pseudo first-order reaction scheme: kon = 1 / ([MK-801]*τon).

[2] = molecular target: T2, GluN1-N512C-L777C/GluN2B-E517C-L781C receptors (UniProt P35439+Q01097, E517C/L777C/L781C/N521C); test: TEVC recordings in Xenopus oocytes, zinc and ifenprodil inhibition dose-response; assay type: cell-based, rat (GluN1), mouse (GluN2B)
T2 construct: For full-length multimeric membrane-embedded receptors studied in cellulo, as done in the present work; expressed in transfected cells; host or cells: Xenopus laevis oocytes
Procedure: as §1, §2, §3, §4

[3] = molecular target: T3, GluN1/GluN2B-N218C receptors (UniProt P35439+Q01097, N218C); test: as above; assay type: cell-based, rat (GluN1), mouse (GluN2B)
T3 construct: For full-length multimeric membrane-embedded receptors studied in cellulo, as done in the present work; expressed in transfected cells; host or cells: Xenopus laevis oocytes
Procedure: as §1, §2, §3, §4

[4] = molecular target: T4, wild-type (wt) GluN1/GluN2B receptors (UniProt P35439+Q01097); test: TEVC recordings in Xenopus oocytes, allosteric modulator sensitivity; assay type: cell-based, rat (GluN1), mouse (GluN2B)
T4 construct: For full-length multimeric membrane-embedded receptors studied in cellulo, as done in the present work; expressed in transfected cells; host or cells: Xenopus laevis oocytes (nuclear cDNA injection, pcDNA3 plasmids)
Procedure: as §1, §2, §3, §4

[5] = molecular target: T5, GluN1-K178AzF/GluN2A receptors (Rattus norvegicus, UniProt P35439+Q00959, K178F); test: TEVC recordings in Xenopus oocytes, modulator sensitivity before and after UV photocrosslinking; assay type: cell-based
T5 construct: For full-length multimeric membrane-embedded receptors studied in cellulo, as done in the present work; expressed in transfected cells; host or cells: Xenopus laevis oocytes, co-injected with amber suppressor tRNA (Yam) and AzF-RS
Procedure: as §1, §2, §3, §4

[6] = pH 8.3 (second column so headed), +UV
[7] = pH 6.5, holding potential -30 mV

T5 sequence (Q00959 23-1464, other chains not shown): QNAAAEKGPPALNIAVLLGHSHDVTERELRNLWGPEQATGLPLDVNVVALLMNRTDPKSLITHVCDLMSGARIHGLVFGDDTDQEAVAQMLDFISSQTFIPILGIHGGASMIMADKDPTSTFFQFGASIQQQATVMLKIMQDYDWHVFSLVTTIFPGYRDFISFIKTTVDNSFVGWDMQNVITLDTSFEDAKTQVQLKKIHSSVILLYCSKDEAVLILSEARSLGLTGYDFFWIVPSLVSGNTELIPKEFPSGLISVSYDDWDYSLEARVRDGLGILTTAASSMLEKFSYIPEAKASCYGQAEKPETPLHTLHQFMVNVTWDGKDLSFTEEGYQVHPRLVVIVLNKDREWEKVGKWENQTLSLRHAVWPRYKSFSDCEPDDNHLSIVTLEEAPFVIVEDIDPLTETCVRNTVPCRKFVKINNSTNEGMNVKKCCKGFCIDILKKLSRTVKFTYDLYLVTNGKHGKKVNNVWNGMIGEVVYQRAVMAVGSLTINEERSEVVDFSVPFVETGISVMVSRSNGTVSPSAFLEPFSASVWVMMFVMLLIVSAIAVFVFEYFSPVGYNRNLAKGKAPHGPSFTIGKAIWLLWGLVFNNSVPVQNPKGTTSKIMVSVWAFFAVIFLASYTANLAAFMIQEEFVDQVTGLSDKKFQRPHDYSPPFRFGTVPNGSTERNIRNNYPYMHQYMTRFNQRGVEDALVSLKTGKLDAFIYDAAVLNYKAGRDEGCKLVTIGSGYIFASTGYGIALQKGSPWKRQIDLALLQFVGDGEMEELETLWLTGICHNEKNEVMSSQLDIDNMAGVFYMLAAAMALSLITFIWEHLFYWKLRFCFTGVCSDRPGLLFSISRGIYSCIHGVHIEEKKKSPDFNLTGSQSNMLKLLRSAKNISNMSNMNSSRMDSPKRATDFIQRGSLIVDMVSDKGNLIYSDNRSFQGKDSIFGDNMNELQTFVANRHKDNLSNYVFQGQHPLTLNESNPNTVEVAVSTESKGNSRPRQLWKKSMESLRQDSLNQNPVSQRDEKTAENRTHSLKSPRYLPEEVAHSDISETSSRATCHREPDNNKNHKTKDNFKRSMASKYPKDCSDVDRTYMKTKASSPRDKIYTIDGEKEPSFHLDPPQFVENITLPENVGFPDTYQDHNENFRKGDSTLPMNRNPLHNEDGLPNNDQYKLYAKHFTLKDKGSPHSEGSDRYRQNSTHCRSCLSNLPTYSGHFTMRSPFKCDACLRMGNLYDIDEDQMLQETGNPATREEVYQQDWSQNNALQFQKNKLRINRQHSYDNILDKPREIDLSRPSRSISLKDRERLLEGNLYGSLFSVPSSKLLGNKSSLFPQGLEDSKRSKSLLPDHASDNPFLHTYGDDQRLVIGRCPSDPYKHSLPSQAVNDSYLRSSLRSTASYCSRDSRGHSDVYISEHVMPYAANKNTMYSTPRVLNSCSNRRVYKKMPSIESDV
T4 sequence (Q01097 27-1482, other chains not shown): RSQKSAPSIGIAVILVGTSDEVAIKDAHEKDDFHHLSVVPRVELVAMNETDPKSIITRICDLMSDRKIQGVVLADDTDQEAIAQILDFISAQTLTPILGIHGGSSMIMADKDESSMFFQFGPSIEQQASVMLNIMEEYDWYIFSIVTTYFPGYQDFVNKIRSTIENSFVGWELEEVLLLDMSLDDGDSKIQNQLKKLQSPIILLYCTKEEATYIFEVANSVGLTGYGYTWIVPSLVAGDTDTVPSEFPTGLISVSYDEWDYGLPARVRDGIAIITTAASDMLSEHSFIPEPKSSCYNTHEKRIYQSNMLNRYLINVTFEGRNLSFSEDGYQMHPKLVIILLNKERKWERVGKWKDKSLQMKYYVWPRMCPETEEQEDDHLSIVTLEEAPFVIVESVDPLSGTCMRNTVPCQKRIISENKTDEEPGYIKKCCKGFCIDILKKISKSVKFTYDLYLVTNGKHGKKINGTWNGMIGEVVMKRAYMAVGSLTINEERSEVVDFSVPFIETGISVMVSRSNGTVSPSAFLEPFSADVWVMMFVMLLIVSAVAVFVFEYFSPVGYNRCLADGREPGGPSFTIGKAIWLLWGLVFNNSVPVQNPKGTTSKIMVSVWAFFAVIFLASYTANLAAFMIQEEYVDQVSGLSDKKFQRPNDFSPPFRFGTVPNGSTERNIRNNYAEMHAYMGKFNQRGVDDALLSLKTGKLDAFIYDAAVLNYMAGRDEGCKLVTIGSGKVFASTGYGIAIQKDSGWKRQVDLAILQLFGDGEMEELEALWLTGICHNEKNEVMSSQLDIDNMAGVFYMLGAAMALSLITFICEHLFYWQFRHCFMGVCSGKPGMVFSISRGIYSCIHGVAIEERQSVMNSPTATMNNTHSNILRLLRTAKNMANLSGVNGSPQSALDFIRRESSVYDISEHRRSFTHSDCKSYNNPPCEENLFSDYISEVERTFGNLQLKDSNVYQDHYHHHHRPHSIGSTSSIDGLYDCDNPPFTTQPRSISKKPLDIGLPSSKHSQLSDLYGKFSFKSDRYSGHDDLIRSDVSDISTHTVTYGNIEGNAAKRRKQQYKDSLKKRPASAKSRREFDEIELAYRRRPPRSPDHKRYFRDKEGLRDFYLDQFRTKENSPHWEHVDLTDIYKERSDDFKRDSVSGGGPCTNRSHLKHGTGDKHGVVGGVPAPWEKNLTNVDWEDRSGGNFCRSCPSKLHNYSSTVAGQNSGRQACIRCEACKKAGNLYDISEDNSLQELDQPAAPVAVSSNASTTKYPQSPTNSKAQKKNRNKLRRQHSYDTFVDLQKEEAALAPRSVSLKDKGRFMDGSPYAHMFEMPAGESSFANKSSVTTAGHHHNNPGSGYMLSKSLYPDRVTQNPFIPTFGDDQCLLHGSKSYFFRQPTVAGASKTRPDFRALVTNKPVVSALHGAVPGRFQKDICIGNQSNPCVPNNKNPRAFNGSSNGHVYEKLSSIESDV
T1 sequence (Q01097 27-1482, other chains not shown): as above

## CC(C(O)c1ccc(O)cc1)N1CCC(Cc2ccccc2)CC1 (centres unmarked) [ifenprodil, Ifenprodil]
[1]; after UV
  ifenprodil Hill slope (nH): 1.25 ± 0.11
  ifenprodil maximal inhibition: 0.54 ± 0.06
[1]; before UV
  ifenprodil Hill slope (nH): 1.25 ± 0.39
  ifenprodil maximal inhibition: 0.98 ± 0.09
[2]
  ifenprodil Hill slope (nH): 0.83 ± 0.13
  ifenprodil maximal inhibition: 0.76 ± 0.03
[3]
  ifenprodil Hill slope (nH): 1.08 ± 0.06
  ifenprodil maximal inhibition: 0.99 ± 0.02
[4]
  ifenprodil Hill slope (nH): 1.22 ± 0.04 and 1.14 ± 0.11 and 1.11 ± 0.07
  ifenprodil maximal inhibition: 0.95 ± 0.02 and 0.93 ± 0.01

## [1H+] [proton]
[1]; after UV
  pHIC50 (proton sensitivity): 6.90 ± 0.02
  proton Hill slope (nH): 0.99 ± 0.03
[1]; before UV
  pHIC50 (proton sensitivity): 7.60 ± 0.01
  proton Hill slope (nH): 1.37 ± 0.05
[1]; pH 6.3, +UV
  proton, relative current at pH 6.3: 0.21 ± 0.09
[1]; pH 6.3, -UV
  proton, relative current at pH 6.3: 0.03 ± 0.02
[1]; pH 7.3, +UV
  proton, relative current at pH 7.3: 0.71 ± 0.02
[1]; pH 7.3, -UV
  proton, relative current at pH 7.3: 0.28 ± 0.04
[1]; [6]
  proton, relative current at pH 8.3: 0.98 ± 0.01
[1]; pH 8.3 (second column so headed), -UV
  proton, relative current at pH 8.3: 1.00 ± 0.03
[1]; pH 8.3, +UV
  proton, relative current at pH 8.3: 0.97 ± 0.03
[1]; pH 8.3, -UV
  proton, relative current at pH 8.3: 0.90 ± 0.04
[1]; post-UV vs pre-UV
  rightward shift in the pH dose-response curve: > 0.5 pH-unit
[5]; after UV
  pHIC50 (proton sensitivity): 7.01 ± 0.01
  proton Hill slope (nH): 1.93 ± 0.07
[5]; before UV
  pHIC50 (proton sensitivity): 7.00 ± 0.02
  proton Hill slope (nH): 1.91 ± 0.11
[5]; pH 6.3, +UV
  proton, relative current at pH 6.3: 0.04 ± 0.01
[5]; pH 6.3, -UV
  proton, relative current at pH 6.3: 0.04 ± 0.01
[5]; pH 7.3, +UV
  proton, relative current at pH 7.3: 0.78 ± 0.03
[5]; pH 7.3, -UV
  proton, relative current at pH 7.3: 0.79 ± 0.03
[5]; [6]
  proton, relative current at pH 8.3: 1.00 ± 0.02
[5]; pH 8.3, +UV
  proton, relative current at pH 8.3: 0.99 ± 0.02
[5]; pH 8.3, -UV
  proton, relative current at pH 8.3: 0.99 ± 0.02
[5]; pH 9.3, -UV
  proton, relative current at pH 9.3: 1.01 ± 0.04

## NCCCNCCCCNCCCN [spermine]
[1]; +UV
  Isper/Io 20 μM: 1.24 ± 0.03
  Isper/Io 200 μM: 2.12 ± 0.26
  Isper/Io 1000 μM: 2.49 ± 0.42
[1]; -UV
  Isper/Io 20 μM: 2.11 ± 0.15
  Isper/Io 200 μM: 13.65 ± 1.01
  Isper/Io 1000 μM: 23.05 ± 1.52
[1]; after UV
  spermine maximal potentiation: 1.6 ± 0.5
  spermine nH: 1.14 ± 0.16
  EC50: 93 ± 22.8 µM
[1]; before UV
  spermine maximal potentiation: 26.1 ± 2.5
  spermine nH: 1.29 ± 0.22
  EC50: 215 ± 63.2 µM
[4]; 20 μM spermine, pH 6.5, -30 mV
  Isper/Io 20 μM: 1.74 ± 0.06
[4]; 200 μM spermine, pH 6.5, -30 mV
  Isper/Io 200 μM: 6.89 ± 0.52
[4]; 1000 μM spermine, pH 6.5, -30 mV
  Isper/Io 1000 μM: 12.55 ± 0.41
[4]; [7]
  spermine maximal potentiation: 11.2 ± 3.3
  spermine nH: 1.26 ± 0.09
[4]; pH 6.5, holding potential -30 mV, read-out: spermine EC50
  EC50: 174 ± 64.5 µM
